Experimental data: patent publication US8618079B2, “Imidazo[1,2-a] pyridinyl bisphosphonates” (Isis Innovation Limited, priority 2008, dated 2013)

What was measured:
[1] = Hydroxyapatite (HAP) affinity, chromatographic retention on HAP column; format: physicochemical; details: phosphate buffer gradient 1 mM to 1000 mM, pH 6.8, longer retention = higher mineral affinity
[2] = molecular target: T1, human farnesyl pyrophosphate synthase (FPPS) (Homo sapiens, UniProt P14324); assay: FPPS inhibition; format: biochemical; details: recombinant human FPPS; for IC50: after pre-incubation; for Ki: read-out: FPPS inhibition Ki (final inhibition constant)
T1 construct: made in house
T1 sequence (P14324 67-419 limits assumed): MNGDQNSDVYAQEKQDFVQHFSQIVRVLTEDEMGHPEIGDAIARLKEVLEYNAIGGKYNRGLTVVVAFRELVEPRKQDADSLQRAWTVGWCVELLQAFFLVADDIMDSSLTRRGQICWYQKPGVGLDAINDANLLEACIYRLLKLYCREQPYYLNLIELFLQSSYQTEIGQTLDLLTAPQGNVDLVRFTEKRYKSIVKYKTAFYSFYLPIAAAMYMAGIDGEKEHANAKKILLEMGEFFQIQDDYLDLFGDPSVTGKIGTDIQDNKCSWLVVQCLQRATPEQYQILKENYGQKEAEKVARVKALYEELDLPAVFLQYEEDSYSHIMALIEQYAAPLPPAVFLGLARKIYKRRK

Sprague Dawley rats = assay: Schenk model, in vivo bone resorption inhibition (tibial BMD); details: rat, subcutaneous once daily for 7 days; dose increasing proximal tibial BMD 20% over control
Protocol: The compounds were evaluated for in vivo bone resorption inhibition and mineralization inhibition in an animal model system known in the field of bone metabolism as the Schenk Model. The general principles of this model system are disclosed in Shinoda et al., Calcif. Tissue Int., 35: 87-99 (1983); and in Schenk et al., Calcif. Tissue Res. 11: 196-214 (1973), the disclosures of which are incorporated herein by reference in their entireties.
Animals: Weanling male Sprague Dawley rats (Charles River Breeding Laboratories, Raleigh, N.C.) approximately 6 weeks old with weights ranging between 120 and 150 grams were placed into groups based on body weight, with 6 animals per group. All groups received treatment by subcutaneous injection (SQ) once daily (QD) for 7 days.
Dose Solutions and Dosing Procedure: On day 0, all animals received an injection of 3% xylenol orange (90 mg/kg; Sigma) in normal saline, pH adjusted to 7.4. On day 4 all animals were given a subcutaneous injection of 1% Calcein (10 mg/kg, Sigma) in 0.9% NaCl solution to label the skeleton. The first treatment was on day 0, and the last treatment on day 6, with animals euthanized on day 7. Concentrations were based on dosing 0.2 ml/100 g body weight. Compounds were administered at doses ranging from 0.0001 to 1 mg P/kg/day for 7 days at semi-log doses. The dose range was based on the IC 50 in the FPPS inhibition assay, and on the affinity to hydroxyapatite (HAP Affinity). Three to seven doses were chosen per test compound. Adjustments in dosage based on changes in body weight were made on a daily basis.
Necropsy, Tissue Processing and Histomorphometry: On day 7 after the start of dosing, all animals were euthanized via exsanguination under gas anesthesia and/or CO2. The right tibia and femur were dissected free and placed in 70% ethyl alcohol. The proximal metaphysis of the right tibia was analyzed using dual energy x-ray analysis (DXA). This provides information on changes in both cortical and cancellous bone density. The primary end-point for this study was bone mineral density in the tibia measured using a Hologics QDR-4500 densitometer (Hologics, Inc). Statistical evaluation of data was made using parametric and non-parametric analysis of variance and Wilcoxon's rank sum test to determine a statistically significant effect compared to control animals.
The Schenk model provided data for in vivo bone resorption inhibition by the compounds, see Table 3. Bone mineral density (BMD) was assessed with a Hologics 4500A on a region of the proximal tibial metaphysic. Efficacy of each bisphosphonate was expressed as the percent change from the vehicle control group. The dose that increased bone mineral density (BMD) 20% greater than control was determined via a logistic dose response relationship (SAS), which estimates an efficacy value using all animals in the study, and identified as D20 for comparison of bisphosphonates across studies. (Lundy et al., J. Bone Min. Res. 22(Suppl 1): S443, (2007)). Data from compounds run in multiple studies was averaged.

[3] = test system: collagen induced arthritis (CIA) rat; assay: Collagen induced arthritis (CIA) rat model, bone resorption scores; format: in vivo
Protocol: The collagen induced arthritis (CIA) rat model is an in vivo model that provides for an evaluation of the inhibition of inflammation as well as inhibition of bone erosion. The study was performed according to the method of Bendele et al., Arthritis & Rheumatism, 43: 2648-2659 (2000), incorporated herein by reference in its entirety, with the exception that male animals were used instead of female animals.
Arthritis was induced in rats by injecting collagen on days 0 and 6. The bisphosphonate compound of Example 4 (1-fluoro-2-(imidazo-[1,2-α]pyridin-3-yl)-ethyl-bisphosphonic acid) was administered at four different dosages (1.57 μg/kg, 15.69 μg/kg, 156.9 μg/kg, and 523.0 μg/kg; n=10/group) by subcutaneous injection on day 0, and compared to vehicle control (n=10). An additional group was administered 10 mg/kg Enbrel® (n=10) on days 9, 12, and 15 as a positive control. The study was stopped on day 17 and the animals were evaluated for ankle thickness and paw weight, indices of inflammation. The ankle and knees were removed as one piece, placed in formalin, decalcified and processed for histology. Sections were stained with toluidine blue and graded for inflammation, pannus and cartilage degradation on a score of 0 (normal) to 5 (severe). Bone erosion was also scored in the ankle and knee on a 0-5 score.

| SMILES | HAP Affinity Retention time [1] | IC50 [2] | Ki [2] | Schenk D20 (mg P/kg) 20% > BMD than control (Sprague Dawley rats) | ankle bone resorption score, dose response ([3]; single subcutaneous injection day 0, 1.57-523.0 μg/kg, scored day 17 (FIG. 9)) | knee bone resorption score, dose response ([3]; single subcutaneous injection day 0, 1.57-523.0 μg/kg, scored day 17 (FIG. 10)) | knee bone resorption score, decrease relative to vehicle ([3]; three highest dosage levels (15.69 μg/kg, 156.9 μg/kg and 523.0 μg/kg), p=0.05 (FIG. 10)) | ankle bone resorption score, decrease relative to vehicle ([3]; two highest dosage levels (156.9 μg/kg and 523.0 μg/kg), p=0.05 (FIG. 9)) |
| --- | --- | --- | --- | --- | --- | --- | --- | --- |
| Cc1ccn2c(CC(F)(P(=O)(O)O)P(=O)(O)O)cnc2c1 [compound 11, 1-fluoro-2-(7-methyl)-imidazo-[1,2-α]pyridin-3-yl-ethyl-bisphosphonic acid] | 6.2 min | 60.3 nM | 9.6 nM | 0.002 mg P/kg |  |  |  |  |
| O=P(O)(O)C(F)(Cc1cnc2ccccn12)P(=O)(O)O [compound 23, 1-fluoro-2-(imidazo-[1,2-α]pyridin-3-yl)-ethyl-bisphosphonic acid] | 6.17 min | 2.46 nM | 0.014 nM | 0.0003 mg P/kg | dose-dependent decrease in bone resorption | dose dependent decrease in bone resorption | statistically different | statistically different |
| NCCCC(O)(P(=O)(O)O)P(=O)(O)O [Alendronate, reference compound] |  |  |  | 0.0015 mg P/kg |  |  |  |  |
| O=P(O)(O)C(Cc1cnc2ccccn12)P(=O)(O)O [compound 80, 2-(imidazo-[1,2-α]pyridin-3-yl)-ethyl-bisphosphonic acid] | 6.6 min | 2.59 nM | 0.013 nM | 0.0006 mg P/kg |  |  |  |  |
| O=P(O)(O)C(Cc1cnc2ccc(F)cn12)P(=O)(O)O [compound 34, [2-(6-fluoro-imidazo[1,2-α]pyridin-3-yl)-ethyl]-bisphosphonic acid] | 6.3 min | 106 nM | 17.5 nM |  |  |  |  |  |
| Cc1ccn2c(CC(P(=O)(O)O)P(=O)(O)O)cnc2c1 [compound 15, 2-(7-methyl)-imidazo-[1,2-α]pyridin-3-yl-ethyl-bisphosphonic acid] | 6.6 min | 39.7 nM | 6.1 nM | 0.008 mg P/kg |  |  |  |  |
| O=P(O)(O)C(O)(Cc1cnc2ccccn12)P(=O)(O)O [Minodronate, reference compound] | 10.33 min |  |  | 0.0001 mg P/kg |  |  |  |  |
| O=P(O)(O)C(Cc1cnc2c(O)cccn12)P(=O)(O)O [compound 40, [2-(8-hydroxy-imidazo[1,2-α]pyridin-3-yl)-1-ethane]-bisphosphonic acid] | 5.3 min | 893 nM | 151 nM |  |  |  |  |  |
| O=P(O)(O)C(O)(Cc1cccnc1)P(=O)(O)O [Risedronate, reference compound] | 9.97 min |  |  | 0.00045 mg P/kg |  |  |  |  |
| O=P(O)(O)C(O)(Cn1ccnc1)P(=O)(O)O [Zoledronate, reference compound] | 12.53 min |  |  | 0.00008 mg P/kg |  |  |  |  |
| CCc1nc2ccccn2c1CC(P(=O)(O)O)P(=O)(O)O [compound 75, [(2-ethyl-imidazo[1,2-α]pyridin-3-yl)-methyl]-bisphosphonic acid] | 4.83 min | 27 nM | 2.5 nM |  |  |  |  |  |
| Cc1ccc2ncc(CC(P(=O)(O)O)P(=O)(O)O)n2c1 [compound 81, 2-(6-methylimidazo-[1,2-α]pyridin-3-yl)-ethyl-bisphosphonic acid] | 6.6 min | 380 nM | 64 nM |  |  |  |  |  |
